Assays:
[1] = test system: cells with activating c-kit mutations in the catalytic region; conditions: Ma et al., 2002; cited from earlier work
c-kit mutant D816V = target: T1, c-kit mutant D816V (Homo sapiens, UniProt P10721, D816V/DEL694-753); assay: c-Kit mutant D816V biochemical assay, AlphaScreen; conditions: c-kit D816V biochemical inhibitory activity; read-out: Biochemical activity (IC50 μM) Kit D816V
T1 construct: residues 551-934, kinase insertion domain residues 694-753 deleted; 6x-histidine (N); made in house; host or cells: E. coli Arctic Express (DE3) RIL (Stratagene)
T1 sequence (P10721 with tags, fused parts or gaps DEL694-753/D816V): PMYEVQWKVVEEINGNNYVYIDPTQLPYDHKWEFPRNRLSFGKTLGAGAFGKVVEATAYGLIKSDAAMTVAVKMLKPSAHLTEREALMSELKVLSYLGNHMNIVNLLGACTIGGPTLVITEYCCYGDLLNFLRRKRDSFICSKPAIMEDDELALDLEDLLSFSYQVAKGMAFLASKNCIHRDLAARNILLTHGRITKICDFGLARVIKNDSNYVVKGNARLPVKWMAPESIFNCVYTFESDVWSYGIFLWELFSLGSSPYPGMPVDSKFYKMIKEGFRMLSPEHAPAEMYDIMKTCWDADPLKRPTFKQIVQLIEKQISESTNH
Summary of the method: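 Purified His-tagged c-Kit D816V (E. coli-expressed) assayed in 25 mM HEPES pH 7.2 with Mg/Mn, 5% DMSO and 10 μM ATP, 30 min at room temperature, 8-point 1:3 dilutions. Phosphorylation detected by AlphaScreen with streptavidin donor and PY20 acceptor beads; IC50 from signal versus concentration.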

c-kit kinase = target: T2, c-kit kinase (Homo sapiens, UniProt P10721); assay: c-Kit biochemical assay, AlphaScreen, 10 μM ATP; conditions: c-kit biochemical inhibitory activity; read-out: Biochemical activity (IC50 μM) Kit
T2 construct: The c-kit (or kinase domain thereof) is an active kinase in AlphaScreen; poly-Histidine tag (in-house protein only) (cleaved yes); host or cells: E. coli BL21(DE3)RIL, co-expressed with PTP1B
T2 sequence (P10721 26-976): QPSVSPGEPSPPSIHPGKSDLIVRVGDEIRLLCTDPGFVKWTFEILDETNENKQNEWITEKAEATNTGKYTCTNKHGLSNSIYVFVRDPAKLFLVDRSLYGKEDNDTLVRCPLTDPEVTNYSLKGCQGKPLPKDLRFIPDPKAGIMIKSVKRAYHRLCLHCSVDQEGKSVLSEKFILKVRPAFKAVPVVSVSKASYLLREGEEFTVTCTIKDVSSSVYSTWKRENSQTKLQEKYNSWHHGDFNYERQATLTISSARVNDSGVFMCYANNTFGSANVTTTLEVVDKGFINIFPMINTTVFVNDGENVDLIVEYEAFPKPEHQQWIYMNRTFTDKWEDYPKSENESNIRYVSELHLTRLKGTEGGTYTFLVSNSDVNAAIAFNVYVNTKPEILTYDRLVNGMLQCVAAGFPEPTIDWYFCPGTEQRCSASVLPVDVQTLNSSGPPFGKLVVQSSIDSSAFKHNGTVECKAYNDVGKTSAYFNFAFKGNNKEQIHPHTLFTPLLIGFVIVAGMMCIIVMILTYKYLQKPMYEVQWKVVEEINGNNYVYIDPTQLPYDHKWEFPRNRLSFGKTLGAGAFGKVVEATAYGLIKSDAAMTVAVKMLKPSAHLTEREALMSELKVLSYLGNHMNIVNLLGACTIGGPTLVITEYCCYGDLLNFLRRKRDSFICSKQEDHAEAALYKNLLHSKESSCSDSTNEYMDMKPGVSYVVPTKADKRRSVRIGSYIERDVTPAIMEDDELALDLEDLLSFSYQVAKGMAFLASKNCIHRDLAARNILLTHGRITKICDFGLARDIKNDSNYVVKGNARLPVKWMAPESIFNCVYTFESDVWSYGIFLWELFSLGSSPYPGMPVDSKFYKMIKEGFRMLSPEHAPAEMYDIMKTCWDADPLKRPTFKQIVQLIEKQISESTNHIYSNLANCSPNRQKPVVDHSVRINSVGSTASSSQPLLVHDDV
Summary of the method: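 His-tagged c-Kit expressed in E. coli with co-expressed PTP1B (dephosphorylated), tag removed; 0.1 ng per reaction with biotinylated-peptide substrate in 50 mM HEPES pH 7.2, 5 mM MgCl2, 5 mM MnCl2, 5% DMSO, 10 μM ATP, 1 h at room temperature. Phosphorylation detected by AlphaScreen (streptavidin donor, PY20 acceptor beads); IC50 from 8-point 1:3 dilution series.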

D816V KIT mutation = D816V KIT mutation (Homo sapiens, UniProt P10721, D816V); conditions: Frost et al., 2002; cited from earlier work
D816V KIT mutation, sequence (P10721 26-976 D816V): as the sequence (P10721 26-976) above, with D791V counted along it

| Structure (SMILES) | inhibition of cells with c-kit mutations in the catalytic region [1] | IC50 (c-kit mutant D816V) [µM] | IC50 (c-kit kinase) [µM] | sensitivity of D816V KIT mutation (D816V KIT mutation) |
| --- | --- | --- | --- | --- |
| Cc1ccc(NC(=O)c2ccc(CN3CCN(C)CC3)cc2)cc1Nc1nccc(-c2cccnc2)n1 [STI571] | did not inhibit | – | – | – |
| C[C@H](NC(=O)N1CCN(c2ncnc3[nH]c(-c4ccc(F)cc4)cc23)CC1(C)C)c1cccc(F)c1 [P-0005, N-[(1S)-1-(3-fluorophenyl)ethyl]-4-[6-(4-fluorophenyl)-7H-pyrrolo[2,3-d]pyrimidin-4-yl]-2,2-dimethyl-piperazine-1-carboxamide] | – | 0.0001 to 1 | 1 to 10 | – |
| O=C(NCc1ccc(F)cc1)N1CCN(c2ncnc3cc(C4=CCNCC4)sc23)CC1 [P-0615, N-[(4-fluorophenyl)methyl]-4-[6-(1,2,3,6-tetrahydropyridin-4-yl)thieno[3,2-d]pyrimidin-4-yl]piperazine-1-carboxamide] | – | 0.0001 to 1 | 1 to 10 | – |
| CCCS(=O)(=O)Nc1cccc(-c2ncnc3[nH]c(-c4ccc(F)cc4)cc23)c1 [P-0434, N-[3-[6-(4-fluorophenyl)-7H-pyrrolo[2,3-d]pyrimidin-4-yl]phenyl]propane-1-sulfonamide] | – | 10 to 200 | 1 to 10 | – |
| Cc1ccc(NC(=O)c2ccc(CN3CCN(C)CC3)cc2)cc1Nc1nccc(-c2cccnc2)n1 [imatinib] | – | – | – | resistant |
| CC(C)(C)OC(=O)N1CC=C(c2cc3ncnc(N4CCN(C(=O)NCc5ccc(F)cc5)CC4)c3s2)CC1 [P-0616, tert-butyl 4-[4-[4-[(4-fluorophenyl)methylcarbamoyl]piperazin-1-yl]thieno[3,2-d]pyrimidin-6-yl]-3,6-dihydro-2H-pyridine-1-carboxylate] | – | 0.0001 to 1 | 1 to 10 | – |
| COc1cc(-c2cc3c(N4CCN(C(=O)N[C@@H](C)c5cccc(OC(F)F)c5)C(C)(C)C4)ncnc3[nH]2)ccn1 [P-0012, N-[(1S)-1-[3-(difluoromethoxy)phenyl]ethyl]-4-[6-(2-methoxy-4-pyridyl)-7H-pyrrolo[2,3-d]pyrimidin-4-yl]-2,2-dimethyl-piperazine-1-carboxamide] | – | 0.0001 to 1 | 1 to 10 | – |
| Cn1cc(-c2cc3c(N4CCC(NS(=O)(=O)c5ccc(Cl)cc5)CC4)ncnc3[nH]2)cn1 [P-0491, 4-chloro-N-[1-[6-(1-methylpyrazol-4-yl)-7H-pyrrolo[2,3-d]pyrimidin-4-yl]-4-piperidyl]benzenesulfonamide] | – | 0.0001 to 1 | 1 to 10 | – |
| Cc1cc2c(-c3ccc(NS(=O)(=O)c4cccc(Cl)c4)cc3F)ncnc2[nH]1 [P-0357, 3-chloro-N-[3-fluoro-4-(6-methyl-7H-pyrrolo[2,3-d]pyrimidin-4-yl)phenyl]benzenesulfonamide] | – | 1 to 10 | 1 to 10 | – |
| COc1cc(NC(=O)N2CCN(c3ncnc4[nH]c(-c5ccccc5)cc34)CC2)cc(OC)c1 [P-0239, N-(3,5-dimethoxyphenyl)-4-(6-phenyl-7H-pyrrolo[2,3-d]pyrimidin-4-yl)piperazine-1-carboxamide] | – | 1 to 10 | 0.0001 to 1 | – |
| O=S(=O)(Nc1ccc(-c2ncnc3[nH]c(-c4ccc(F)cc4F)cc23)c(F)c1)C1CC1 [P-0340, N-[4-[6-(2,4-difluorophenyl)-7H-pyrrolo[2,3-d]pyrimidin-4-yl]-3-fluoro-phenyl]cyclopropanesulfonamide] | – | 0.0001 to 1 | 10 to 200 | – |
| COc1cccc([C@H](C)NC(=O)N2CCN(c3ncnc4cc(-c5cn(C)nc5C)sc34)C[C@H]2C)c1 [P-0598, (2R)-4-[6-(1,3-dimethylpyrazol-4-yl)thieno[3,2-d]pyrimidin-4-yl]-N-[(1S)-1-(3-methoxyphenyl)ethyl]-2-methyl-piperazine-1-carboxamide] | – | 0.0001 to 1 | 1 to 10 | – |
| Cc1ccc(S(=O)(=O)Nc2ccc(-c3ncnc4cc(C)sc34)cc2)cc1 [P-0623, 4-methyl-N-[4-(6-methylthieno[3,2-d]pyrimidin-4-yl)phenyl]benzenesulfonamide] | – | 0.0001 to 1 | 1 to 10 | – |
| CS(=O)(=O)Nc1cccc(-c2cc3c(N4CCN(C(=O)Nc5ccc(OC(F)(F)F)cc5)CC4)ncnc3[nH]2)c1 [P-0119, 4-[6-[3-(methanesulfonamido)phenyl]-7H-pyrrolo[2,3-d]pyrimidin-4-yl]-N-[4-(trifluoromethoxy)phenyl]piperazine-1-carboxamide] | – | 1 to 10 | 0.0001 to 1 | – |
| CC(=O)Nc1cccc(-c2cc3c(N4CCN(C(=O)Nc5ccc(OC(F)(F)F)cc5)CC4)ncnc3[nH]2)c1 [P-0120, 4-[6-(3-acetamidophenyl)-7H-pyrrolo[2,3-d]pyrimidin-4-yl]-N-[4-(trifluoromethoxy)phenyl]piperazine-1-carboxamide] | – | 1 to 10 | 0.0001 to 1 | – |
| Fc1ccc(-c2cc3c(N4CCN(c5nc6ccccc6[nH]5)CC4)ncnc3[nH]2)cc1 [P-0011, 4-[4-(1H-benzimidazol-2-yl)piperazin-1-yl]-6-(4-fluorophenyl)-7H-pyrrolo[2,3-d]pyrimidine] | – | 0.0001 to 1 | 10 to 200 | – |
| COc1cccc([C@H](C)NC(=O)N2CC3CCC2CN3c2ncnc3cc(-c4ccc(F)cc4)sc23)c1 (stereo partly drawn) [P-0566, 5-[6-(4-fluorophenyl)thieno[3,2-d]pyrimidin-4-yl]-N-[(1S)-1-(3-methoxyphenyl)ethyl]-2,5-diazabicyclo[2.2.2]octane-2-carboxamide] | – | 1 to 10 | 10 to 200 | – |
| Cc1ncc(-c2cc3c(N4CCN(C(=O)NCc5ccc(F)cc5)CC4)ncnc3[nH]2)s1 [P-0079, N-[(4-fluorophenyl)methyl]-4-[6-(2-methylthiazol-5-yl)-7H-pyrrolo[2,3-d]pyrimidin-4-yl]piperazine-1-carboxamide] | – | 0.0001 to 1 | 0.0001 to 1 | – |
| CCOC(=O)N1CCN(c2cc3ncnc(N4CCN(C(=O)N[C@@H](C)c5cccc(OC)c5)C(C)(C)C4)c3s2)CC1 [P-0681, ethyl 4-[4-[4-[[(1S)-1-(3-methoxyphenyl)ethyl]carbamoyl]-3,3-dimethyl-piperazin-1-yl]thieno[3,2-d]pyrimidin-6-yl]piperazine-1-carboxylate] | – | 0.0001 to 1 | 1 to 10 | – |
| COc1cc2ncnc(-c3ccc(S(=O)(=O)Nc4ccc(Cl)cc4)cc3F)c2cc1OCCCN1CCOCC1 [P-0247, N-(4-chlorophenyl)-3-fluoro-4-[7-methoxy-6-(3-morpholinopropoxy)quinazolin-4-yl]benzenesulfonamide] | – | 0.0001 to 1 | 1 to 10 | – |
| NC1CCN(c2ncnc3[nH]ccc23)CC1 [P-0541, 1-(7H-pyrrolo[2,3-d]pyrimidin-4-yl)piperidin-4-amine] | – | 1 to 10 | 10 to 200 | – |
